Read-outs that look alike come from different tables or passages of the source.
Key:
[1] = Pharmacokinetic evaluation of Compound 22 in female BALB/c mice in different vehicles; assay type: in vivo; conditions: mouse, plasma, po, 100 mg/kg, 100 mg/kg p.o. single; for half-life: read-out: T½ (converted)
Experimental: BALB/c mice, female, 7-9 weeks old (the age of mice at the start of the experiment), weight: 19.2-22.1 g, […] (34 mice plus another 10 surplus mice). They were purchased from Shanghai Lingchang Biotechnology Co., Ltd. (LC), with animal certificate number: 2013001835211. Rearing environment: SPF level.
After single administration, plasma was collected from each group at 0.25 h, 0.5 h, 1 h, 2 h, 4 h, 6 h, 8 h and 24 h, with 3 mice at each time point, and the experiment was terminated after 24h. 10 remaining mice were used to collect blank plasma.

[2] = tested on: MPTP-induced Parkinson's disease; assay: MPTP-induced mouse Parkinson's disease model, open field test; assay type: in vivo, C57BL/6 mice; conditions: open field 10 minutes
From the text: By injecting the substantia nigra selective toxin MPTP, the mitochondria were intervened to induce lipid peroxidation for disturbing the membrane structure and affecting cell function, and finally the substantia nigra dopaminergic (DA) neurons were selectively destroyed, leading to the massive death of substantia nigra DA neurons, the massive loss of striatum tyrosine hydroxylase-positive fibers, and the significant decrease in the levels of striatum DA and its metabolites 3,4-dihydroxyphenylacetic acid and homovanillic acid. There are also the hyperplasia of the substantia nigra striatal microglia and astrocytes and the damage of locus coeruleus, hypothalamus and other areas, which are basically the same as those in patients with Parkinson's disease. The ameliorative effect of a test substance on the stiffness symptom of Parkinson's disease induced by MPTP in mice was evaluated.
C57BL/6 male mice of 8 weeks old were selected. The 8-week-old C57 mice were intraperitoneally (i.p.) injected with a vehicle dissolved in saline (normal saline) or MPTP (30 mg/kg body weight) for 5 days to induce the Parkinson's disease.
At 0.5 hours after the last MPTP injection, two doses (10 mpk and 30 mpk) were administered by intragastric administration.
At 1.5 hours after the last MPTP injection, an open field test (total travel distance and number of standings) was performed for 10 minutes.

[3] = Group 1, vehicle 40% PEG400/60% water
[4] = Group 2, vehicle 40% (2-hydroxypropyl)-β-cyclodextrin

SMILES: Nc1nc(NCCc2ccc(NC3COC3)cc2)nc2nc(-c3ccco3)nn12 [Compound 22, 2-(furan-2-yl)-N5-(4-(oxetan-3-ylamino)phenethyl)-[1,2,4]triazolo[1,5-a][1,3,5]triazine-5,7-diamine]
- AUC(0-inf) [1, 3]: 16100 ng·h/mL
- AUC(0-t) [1, 3]: 15900 ng·h/mL
- Cmax [1, 3]: 2080 ng/mL
- Tmax [1, 3]: 1 h
- half-life [1, 3]: 3.04 h
- AUC(0-inf) [1, 4]: 28500 ng·h/mL
- AUC(0-t) [1, 4]: 28400 ng·h/mL
- Cmax [1, 4]: 5580 ng/mL
- Tmax [1, 4]: 0.5 h
- half-life [1, 4]: 2.66 h
- Moving distance (cm) ([2]; 10 mg/kg p.o. once): 647.0 cm
- Number of standings ([2]; 10 mg/kg p.o. once): 18.3
- Moving distance (cm) ([2]; 30 mg/kg p.o. once): 1107.3 cm
- Number of standings ([2]; 30 mg/kg p.o. once): 31.0
